Assay results published in PubChem BioAssay AID1963851 (Molecular Pharmacology Branch, DTP, NCI, 2024).

Test system: 188146-221-R-J1-PDC complex spheroid viability
Assay: Anticancer human tumor 188146-221-R-J1-PDC patient-derived colon adenocarcinoma cell line growth inhibition [POLQ]
Conditions: for IC50: curve of first compound; for viability, T/C: stronger effect = lower value
Method: Multicellular complex tumor spheroid response to Polymerase (POL) inhibitors (novobiocin, ART-558, RP6685) in combination with a variety of drugs and investigational agents in selected tumor cell lines
The POL inhibitors (novobiocin, ART-558, and RP6685) were evaluated both individually and in combination with standard of care and investigational anticancer small molecules within a complex spheroid model of solid tumors. . Complex spheroids include a stromal component modeled by human endothelial cells (HUVEC) and fibroblasts modeled by human mesenchymal stem cells (MSCs). The concentration ranges selected for each drug and investigational agent were based upon clinically achievable concentrations if the clinical Cmax of the agent was known.
Compounds. The drugs and investigational agents: novobiocin (NSC847541), ART-558 (NSC835418), RP-6685 (NSC848927), peposertib (NSC802822), ceralasertib (NSC780249), elimusertib (NSC800525), camonsertib (NSC841442), AZD-1390 (NSC803789), olaparib (NSC753686), talazoparib (NSC767125), rucaparib (NSC756644), sotorasib (NSC818433), MRTX-1133 (NSC836407), SN-38 (NSC673596), topotecan (NSC609699), epotoside (NSC141540), doxorubicin (NSC123127), gemcitabine (NSC613327), 5-fluorouracil (NSC19893), paclitaxel (NSC125973), vemurafenib (NSC761431), MSA-2 (NSC828583), SN-011 (NSC837082), adavosertib (NSC754352), prexasertib (NSC758257), carboplatin (NSC241240) and oxaliplatin (NSC266046), were obtained from the National Cancer Institute (NCI) Developmental Therapeutics Program Chemical Repository (21). The FDA-approved anticancer drug set is available from the Developmental Therapeutics Program at https://dtp.cancer.gov/organization/dscb/obtaining/. […] The stock solutions were prepared in dimethyl sulfoxide (DMSO, Sigma-Aldrich, St. Louis, MO, cat. D2650), except for the platinum compounds which were prepared in saline (Quality Biological, Gaithersburg, MD, cat. 114-055-101), at 800-fold the tested concentration and stored at -70 degrees C prior to their use. All drugs and investigational agents were tested over a range starting from a high concentration at or near the clinical Cmax and decreasing in half-log increments. If the clinical Cmax for an agent had not been determined, the highest concentration tested was 10 microM, except for SN-38, which was tested at a high concentration of 1 microM.
Cell Culture. All cells were maintained in an incubator at 37 degrees C and 5% CO2 with 95% humidity. The PDC lines were cultured according to standard operating procedures established by the NCI PDMR (https://pdmr.cancer.gov). Table 3 of the manuscript, lists the cell lines along with the number of the three cell types plated to form the mct-spheroids and media for tumor cell growth. After thawing, all PDC lines, except 997537-175-T-J1-PDC and 415267-285-R-J2-PDC, were cultured in Matrigel-coated flasks prepared with a working solution of 1X Ham's F-12 nutrient mix, without supplementation (Thermo Fisher Scientific, cat. 11765054), 100 U/mL penicillin-streptomycin (Thermo Fisher Scientific, cat. 15140122), and 2.5% Matrigel (Corning Inc., Corning, NY, cat. 354248) for the first three passages. The two PDC lines 997537-175-T-J1-PDC and 415267-285-R-J2-PDC were cultured on uncoated flasks. The 857933-349-R-J2-PDC line was cultured in 6C/Colon 1B media containing advanced DMEM/F-12 (Thermo Fisher Scientific, cat. 12634028), 10 mM HEPES (Thermo Fisher Scientific, cat. 15630080), 1X GlutaMAX supplement (Thermo Fisher Scientific, cat. 35050061), 0.1 mg/mL primocin (InvivoGen, San Diego, CA, cat. ant-pm-2), 10% defined fetal bovine serum, heat inactivated (HyClone Laboratories Inc., Logan, UT, cat. SH30070.03HI), 50% L-WRN conditioned media (ATCC, cat. CRL-3276), 1.25 mM N-Acetyl-L-cysteine (Sigma-Aldrich, cat. A9165), 10 mM nicotinamide (Sigma-Aldrich, cat. N0636), 1X B-27 supplement (Thermo Fisher Scientific, cat. 17504044), 1X N-2 supplement (Thermo Fisher Scientific, cat. […]

[1] = second compound 0.0316 µM, first compound 0.0316 µM
[2] = second compound 0.0316 µM, first compound 0.1 µM
[3] = second compound 0.0316 µM, first compound 0.316 µM
[4] = second compound 0.0316 µM, first compound 1 µM
[5] = second compound 0.0316 µM, first compound 3.16 µM
[6] = second compound 0.0316 µM, first compound 10 µM
[7] = second compound 0.1 µM, first compound 0.0316 µM
[8] = second compound 0.1 µM, first compound 0.1 µM
[9] = second compound 0.1 µM, first compound 0.316 µM
[10] = second compound 0.1 µM, first compound 1 µM
[11] = second compound 0.1 µM, first compound 3.16 µM
[12] = second compound 0.1 µM, first compound 10 µM
[13] = second compound 0.316 µM, first compound 0.0316 µM
[14] = second compound 0.316 µM, first compound 0.1 µM
[15] = second compound 0.316 µM, first compound 0.316 µM
[16] = second compound 0.316 µM, first compound 1 µM
[17] = second compound 0.316 µM, first compound 3.16 µM
[18] = second compound 0.316 µM, first compound 10 µM
[19] = second compound 1 µM, first compound 0.0316 µM
[20] = second compound 1 µM, first compound 0.1 µM
[21] = second compound 1 µM, first compound 0.316 µM
[22] = second compound 1 µM, first compound 1 µM
[23] = second compound 1 µM, first compound 3.16 µM
[24] = second compound 1 µM, first compound 10 µM
[25] = second compound 3.16 µM, first compound 0.0316 µM
[26] = second compound 3.16 µM, first compound 0.1 µM
[27] = second compound 3.16 µM, first compound 0.316 µM
[28] = second compound 3.16 µM, first compound 1 µM
[29] = second compound 3.16 µM, first compound 3.16 µM
[30] = second compound 3.16 µM, first compound 10 µM
[31] = second compound 10 µM, first compound 0.0316 µM
[32] = second compound 10 µM, first compound 0.1 µM
[33] = second compound 10 µM, first compound 0.316 µM
[34] = second compound 10 µM, first compound 1 µM
[35] = second compound 10 µM, first compound 3.16 µM
[36] = second compound 10 µM, first compound 10 µM
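Also: spheroids exposed to compounds for seven days.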
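For viability, T/C in this document: 100% = DMSO vehicle control viability.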

Compound O=C(Nc1ccc(O)c(NS(=O)(=O)c2ccc(F)cc2)c1)c1ccc(-c2ccccc2)cc1 + Cc1cccc(N(C)C(=O)C2C(O)CCN2c2nc(C)cc(C(F)(F)F)c2C#N)c1 has an IC50 (second compound 0.0316 µM) of over 10 µM, an IC50 (second compound 0.1 µM) of over 10 µM and an IC50 (second compound 0.316 µM) of over 10 µM. It also gave an IC50 (second compound 1 µM) of over 10 µM, an IC50 (second compound 3.16 µM) of over 10 µM and an IC50 (second compound 10 µM) of over 10 µM. For the same compound, the viability, T/C [1] was 100%, the viability, T/C [2] was 103% and the viability, T/C [3] was 109%. For the same compound, the viability, T/C [4] was 107%, the viability, T/C [5] was 100% and the viability, T/C [6] was 50.2%. The viability, T/C [7] was 103%, the viability, T/C [8] was 92.1% and the viability, T/C [9] was 93.5%. It also gave a viability, T/C [10] of 87.8%, a viability, T/C [11] of 106% and a viability, T/C [12] of 60.6%. For the same compound, the viability, T/C [13] was 102%, the viability, T/C [14] was 98.1% and the viability, T/C [15] was 103%. It also gave a viability, T/C [16] of 80.2%, a viability, T/C [17] of 83.2% and a viability, T/C [18] of 75.2%. For the same compound, the viability, T/C [19] was 98.5%, the viability, T/C [20] was 90.9% and the viability, T/C [21] was 92.6%. For the same compound, the viability, T/C [22] was 86.9%, the viability, T/C [23] was 84.1% and the viability, T/C [24] was 65.2%. For the same compound, the viability, T/C [25] was 96%, the viability, T/C [26] was 92.3% and the viability, T/C [27] was 89.5%. For the same compound, the viability, T/C [28] was 99%, the viability, T/C [29] was 90.2% and the viability, T/C [30] was 52.1%. The viability, T/C [31] was 92.3%, the viability, T/C [32] was 91.3% and the viability, T/C [33] was 101%. For the same compound, the viability, T/C [34] was 87.3%, the viability, T/C [35] was 79.6% and the viability, T/C [36] was 51.2%.

Compound O=C(c1cc(Cc2n[nH]c(=O)c3ccccc23)ccc1F)N1CCN(C(=O)C2CC2)CC1 + COC1C(OC(N)=O)C(O)C(Oc2ccc3c(O)c(NC(=O)c4ccc(O)c(CC=C(C)C)c4)c(=O)oc3c2C)OC1(C)C has an IC50 (second compound 0.0316 µM) of over 10 µM, an IC50 (second compound 0.1 µM) of over 10 µM and an IC50 (second compound 0.316 µM) of over 10 µM. For the same compound, the IC50 (second compound 1 µM) was over 10 µM, the IC50 (second compound 3.16 µM) was over 10 µM and the IC50 (second compound 10 µM) was over 10 µM. It also gave a viability, T/C [1] of 93.5%, a viability, T/C [2] of 88.6% and a viability, T/C [3] of 100%. For the same compound, the viability, T/C [4] was 98.4%, the viability, T/C [5] was 99.5% and the viability, T/C [6] was 74.3%. The viability, T/C [7] was 107%, the viability, T/C [8] was 102% and the viability, T/C [9] was 97.1%. It also gave a viability, T/C [10] of 106%, a viability, T/C [11] of 91.3% and a viability, T/C [12] of 85.2%. The viability, T/C [13] was 108%, the viability, T/C [14] was 94.1% and the viability, T/C [15] was 97.7%. It also gave a viability, T/C [16] of 105%, a viability, T/C [17] of 90.7% and a viability, T/C [18] of 72.7%. It also gave a viability, T/C [19] of 106%, a viability, T/C [20] of 104% and a viability, T/C [21] of 104%. For the same compound, the viability, T/C [22] was 96.3%, the viability, T/C [23] was 89.5% and the viability, T/C [24] was 74.7%. For the same compound, the viability, T/C [25] was 108%, the viability, T/C [26] was 107% and the viability, T/C [27] was 101%. For the same compound, the viability, T/C [28] was 91.7%, the viability, T/C [29] was 105% and the viability, T/C [30] was 96.6%. The viability, T/C [31] was 101%, the viability, T/C [32] was 103% and the viability, T/C [33] was 98.8%. It also gave a viability, T/C [34] of 97.1%, a viability, T/C [35] of 108% and a viability, T/C [36] of 80.5%.
